pIC50: −log10 of the molar value.
How the values were obtained:
[1] = Proliferation test / cytotoxicity assay (crystal violet); type: cell-based; conditions: human, DU 145 tumour cells; cell line DU 145
Protocol: Biological Experiment 3: Proliferation Test
To examine cell toxicity a cell proliferation test were established.
With the cell proliferation test different tumour cell lines (e.g. Du 145) can be examined. The cells were dispensed in RPMI 1640 culture medium, supplied with 10% (v/v) fetal calf serum plus 1% (v/v) Penicillin/Streptomycin solution at a cell density of 2.000 cell/100 μL medium/per well (96 well plate). After three hours the cells were washed with PBS (containing calcium and magnesium). 100 μL of culture medium above with 0.1% (v/v) fetal calf serum was added and cultured at 37° C. and 5% CO2-atmosphere. Next day compounds of the present invention diluted in DMSO for appropriate concentrations were added and further 100 μL culture medium 0.5% (v/v) fetal calf serum. After 5 days cell culturing at 37° C. and 5% CO2-atmosphere cells were washed with PBS. 20 μL of glutaraldehyde solution (11% (v/v)) is added and the cells were slightly shaken at room temperature for 15 min. After that the cell were washed 3 times and dried in the air. 100 μL of crystal violet solution (0.1% at pH 3.5) were added and the cells were shaken for 30 min. The cells were washed with tap water and air-dried. The colour is dissolved with 100 μL of acetic acid (10% (v/v)) under strong shaking for 5 min. The absorption was measured at 595 nm wavelength.

Tie2 = biological target: T1, Tie2 (Homo sapiens, UniProt Q02763); assay: Tie2 kinase assay or Tie2 autophosphorylation ELISA test (not stated which); type: biochemical; conditions: either assay; not specified per compound; read-out: IC50 of Tie2 inhibition, either in the Tie2 kinase assay or in the Tie2 autophosphorylation ELISA test
T1 construct: fused on or other part: GST in the kinase assays; none in the CHO cell assay
T1 sequence (Q02763 770-1124 limits assumed): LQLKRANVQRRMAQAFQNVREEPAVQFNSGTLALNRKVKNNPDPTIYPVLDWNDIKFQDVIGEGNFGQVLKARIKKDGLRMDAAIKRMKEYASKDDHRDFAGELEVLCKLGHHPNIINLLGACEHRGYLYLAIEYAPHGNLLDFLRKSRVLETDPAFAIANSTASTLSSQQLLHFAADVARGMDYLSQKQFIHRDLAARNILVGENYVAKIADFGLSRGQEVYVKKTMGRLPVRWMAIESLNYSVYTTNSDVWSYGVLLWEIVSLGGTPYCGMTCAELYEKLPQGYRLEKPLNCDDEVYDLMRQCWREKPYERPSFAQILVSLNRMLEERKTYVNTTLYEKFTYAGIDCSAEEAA
From the text: Biological Experiment 1: ELISA Method
Herein CHO cell-cultures, which are stably transfected by known techniques with Tie2 using DHFR deficiency as selection marker, are stimulated by angiopoietin-2. The specific autophosphorytation of Tie2 receptors is quantified with a sandwich-ELISA using anti-Tie2 antibodies for catch and anti-phosphotyrosine antibodies coupled to HRP as detection.
• 96 well tissue culture plate, sterile, Greiner • 96 well FluoroNunc plate MaxiSorp Surface C, Nunc • 96 well plate polypropylene for compound dilution in DMSO • CHO Tie2/DHFR (transfected cells) • PBS−; PBS++, DMSO • MEM alpha Medium with Glutamax-I without Ribonucleosides and Deoxyribonucleosides (Gibco #32561-029) • with 10% FCS after dialysis! and 1% PenStrep • Lysis buffer: 1 Tablet “Complete” protease inhibitor • 1 cap Vanadate (1 mL>40 mg/mL; working solution 2 mM) • ad 50 mL with Duschl-Puffer • pH 7.6 • Anti-TIE-II antibody 1:425 in Coating Buffer pH 9.6 • Stock solution: 1.275 mg/mL>working: 3 μg/mL • PBST: 2 bottles PBS(10×)+10 ml Tween, fill up with VE-water • RotiBlock 1:10 in VE-water • Anti-Phosphotyrosine HRP-Conjugated 1:10000 in 3% TopBlock • 3% TopBlock in PBST • BM Chemiluminescence ELISA Substrate (POD) • solution B 1:100 solution A • SF9 cell culture medium • Ang2-Fc in SF9 cell culture medium Cell Experiment: • Dispense 5×10^4 cells/well/98 μL in 96 well tissue culture plate • Incubate at 37° C./5% CO2 • After 24 h add compounds according to desired concentrations • Add also to control and stimulated values without compounds 2 μL DMSO • And mix for a few min at room temperature • Add 100 μL Ang2-Fc to all wells except control, which receives insect medium • Incubate 20 min at 37° C. • Wash 3× with PBS++ • Add 100 μl Lysis buffer/well and shake a couple of min at room temperature • Store lysates at […] before utilizing for the ELISA Performance of Sandwich-ELISA • Coat 96 well FluoroNunc Plate MaxiSorp Surface C with anti-Tie2 Mab • 1:425 in Coating buffer pH 9.6; 100 μL/well overnight at 4° C. • Wash 2× with PBST • Blcock plates with 250 μL/well RotiBtock 1:10 in VE-water • Incubate for 2 h at room temperature or overnight at 4° C. shaking • Wash 2× in PBST • Add thawed lysates to wells and incubate overnight shaking at 4° C. • Wash 2× with PBST • Add 100 μL/well anti-Phosphotyrosine HRP-Conjugated 1:10000 in 3% TopBLock (3% TopBLock in PBST) and incubate overnight under shaking • Wash 6× with PBST • Add 100 μL/well BM Chemiluminescence ELISA Substrate (POD) solutions 1 und 2 (1:100) • Determine luminescence with the LumiCount. Biological Experiment 2: Tie-2-Kinase HTRF-Assay
Tie-2 phosphorylates tyrosine residues of the artificial substrate poLyGAT (biolinylated poLyGLuAlaTyr). Detection of phosphorylated product is achieved specifically by a trimeric detection complex consisting of the phosphorylated substrate, streptavidin-XLent (SA-XLent) which binds to biotin, and Europium Cryptate-LabeLed anti-phosphotyrosine antibody PT66 which binds to phosphorylated tyrosine. Excitation of Europium fluorescence with 337 nm light results in emission of long-lived light with 620 nm. In case a trimeric detection complex has formed, part of the energy will be transferred to the SA-XLent fluorophore that itself then emits long-lived light of 665 nm (FRET: fluorescence resonance energy transfer). […] Measurement is performed in a Packard Discovery or BMG Rubystar instrument. A-counts (emission at 665 nm) will be divided by B-counts (emission at 620 nm) and multiplicated with a factor of 10000. The resulting numbers are called the “well ratio” of the sample.
A recombinant fusion protein of GST and the intracellular domains of Tie-2, expressed in insect cells (Hi-5) and purified by Glutathion-Sepharose affinity chromatography was used as kinase. Alternatively, commercially available GST-Tie2-fusion protein (Upstate Biotechnology, Dundee, Scotland) can be used. […]

pIC50 (Tie2) | Compound | IC50 at 5 days [1] [nM]
≥ 5.70 | COC(=O)c1ccc(-c2cnc3nc2NCCCNS(=O)(=O)c2cccc(c2)N3)cc1 [Example 6, methyl 4-[4,4-dioxo-4λ^6-thia-2,5,9-triaza-1(2,4)-pyrimidina-3(1,3)-benzenacyclononaphan-1^5-yl]benzoate] | > 1000
≥ 5.70 | CC(=O)c1ccc(-c2cnc3nc2NCCCNS(=O)(=O)c2cccc(c2)N3)cc1 [Example 7, 1-[4-[4,4-dioxo-4λ^6-thia-2,5,9-triaza-1(2,4)-pyrimidina-3(1,3)-benzenacyclononaphan-1^5-yl]phenyl]-ethanone] | > 1000
≥ 5.70 | O=S1(=O)NCCCNc2nc(ncc2-c2ccccc2)Nc2cccc1c2 [Example 8, 1^5-phenyl-4-thia-2,5,9-triaza-1(2,4)-pyrimidina-3(1,3)-benzenacyclononaphane 4,4-dioxide] | > 1000
≥ 5.70 | O=S1(=O)NCCCNc2nc(ncc2-c2ccc(O)cc2)Nc2cccc1c2 [Example 9, 4-[4,4-dioxo-4λ^6-thia-2,5,9-triaza-1(2,4)-pyrimidina-3(1,3)-benzenacyclononaphan-1^5-yl]phenol] | –
≥ 5.70 | COc1ccc(-c2cnc3nc2NCCCNS(=O)(=O)c2cccc(c2)N3)cc1 [Example 10, 1^5-(4-methoxyphenyl)-4-thia-2,5,9-triaza-1(2,4)-pyrimidina-3(1,3)-benzenacyclononaphane 4,4-dioxide] | > 1000
≥ 5.70 | CS(=O)(=O)c1ccc(-c2cnc3nc2NCCCNS(=O)(=O)c2cccc(c2)N3)cc1 [Example 11, 1^5-(4-methylsulfonylphenyl)-4-thia-2,5,9-triaza-1(2,4)-pyrimidina-3(1,3)-benzenacyclononaphane 4,4-dioxide] | –
≥ 5.70 | O=S1(=O)NCCCNc2nc(ncc2/C=C\c2ccccc2)Nc2cccc1c2 [Example 51, 1^5-((Z)-styryl)-4-thia-2,5,9-triaza-1(2,4)-pyrimidina-3(1,3)-benzenacyclononaphane 4,4-dioxide] | –
≥ 5.70 | C=C(c1ccccc1)c1cnc2nc1NCCCNS(=O)(=O)c1cccc(c1)N2 [Example 52, 1^5-(1-phenyl-vinyl)-4-thia-2,5,9-triaza-1(2,4)-pyrimidina-3(1,3)-benzenacyclononaphane 4,4-dioxide] | –

— patent US20060167030A1, “Sulfonamido-macrocycles and the salts thereof, a pharmaceutical composition comprising these compounds, the method of preparing and the use thereof” (priority 2004, published 2006)
